Results as given in patent US20230029066A1, “CRYSTAL FORMS OF FUSED RING COMPOUND, AND COMPOSITION THEREOF, PREPARATION METHOD THEREFOR AND APPLICATION THEREOF” (HANGZHOU YUSHENG MEDICAL TECHNOLOGY CO. LTD, priority 2019, published 2023).
In brackets after ≈: the same amount, converted by molar mass. Entries after “also recorded” stand apart in the source; their conditions may differ. Where two headings read alike, the source gives them in different places.

Columns and labels:
Type in all cases: physicochemical
[1] = Accelerated stability test for 30 days (XRD); settings: 40° C., sealed bags
Method: Evaluation for accelerated stability of crystal forms I, II and IV
Crystal form IV obtained in Example 3, crystal form I obtained in Example 6, and crystal form II obtained in Example 8 were each taken 30 mg, in triplicate, put into sealed bags, which is transferred into BPN-80CH CO2 incubator, of which the temperature was set at 40° C. The samples were taken after 30 days and tested by XRD.

[2] = Effect of crystal form on stability, high humidity test for 5 days (XRD); settings: room temperature, unsealed, desiccator with saturated potassium nitrate
Method: Evaluation on effect of crystal form on stability—high humidity test for 5 days
(§1) The amorphous form obtained in Example 11, crystal form IV obtained in Example 3, crystal form I obtained in Example 6, and crystal form II obtained in Example 8 were each taken 30 mg, in triplicate, put into a penicillin bottle, which is transferred, without being sealed, at room temperature into a desiccator with saturated potassium nitrate at the bottom, and the samples were taken after 5 days and tested by XRD.

[3] = Effect of crystal form on stability, high temperature test for 5 days (XRD); settings: 60° C., unsealed
Method: Evaluation on effect of crystal form on stability—high temperature test for 5 days
as §1, with “to QG 2003 ba incubation and drying oven, of which the” for “at room”, “was adjusted to 60° C. The” for “into a desiccator with saturated potassium nitrate at the bottom, and the”

[4] = Stability in solution within 24 hours
[5] = Solubility of crystal forms in different environments
Source text: The solubilities (μg/mL) of crystal form I in different environments are shown in […]

[6] = Simulated fasting intestinal fluid (FaSSIF)
[7] = Simulated postprandial intestinal fluid (FeSSIF)
[8] = pH 1.2 hydrochloric acid solution
[9] = pH 4.5 acetic acid-sodium acetate solution
[10] = Simulated fasting intestinal fluid (FaSSIF), R.T. (25° C.)
[11] = Simulated gastric fluid (SGF), 37° C.
[12] = Simulated gastric fluid (SGF), R.T. (25° C.)
[13] = Simulated gastric fluid (SGF), Ultrasonic
[14] = Simulated postprandial intestinal fluid (FeSSIF), 37° C.
[15] = Simulated postprandial intestinal fluid (FeSSIF), R.T. (25° C.)
[16] = Simulated postprandial intestinal fluid (FeSSIF), Ultrasonic
[17] = pH 1.2 hydrochloric acid solution, 37° C.
[18] = pH 1.2 hydrochloric acid solution, R.T. (25° C.)
[19] = pH 1.2 hydrochloric acid solution, Ultrasonic
[20] = pH 4.5 acetic acid-sodium acetate solution, 75° C.
[21] = pH 4.5 acetic acid-sodium acetate solution, R.T. (25° C.)

| solid-form stability, change of XRD after accelerated stability test [1] | solid-form stability, change of XRD after high humidity test [2] | solid-form stability, change of XRD after high temperature test [3] | Stability [4, 6] | Stability ([4]; Simulated gastric fluid (SGF)) | Stability [4, 7] | Stability ([4]; Water) | Stability [4, 8] | Stability [4, 9] | Stability ([4]; pH 6.8 PBS solution) | solubility [5, 10] [µg/mL] | solubility [5, 11] [µg/mL] | solubility [5, 12] [µg/mL] | solubility [5, 13] [µg/mL] | solubility [5, 14] [µg/mL] | solubility [5, 15] [µg/mL] | solubility [5, 16] [µg/mL] | solubility [5, 17] [µg/mL] | solubility [5, 18] [µg/mL] | solubility [5, 19] [µg/mL] | Compound | other results |
| --- | --- | --- | --- | --- | --- | --- | --- | --- | --- | --- | --- | --- | --- | --- | --- | --- | --- | --- | --- | --- | --- |
| barely no change; also recorded: stable | barely no change; also recorded: stable | barely no change; also recorded: stable |  |  |  |  |  |  |  |  |  |  |  |  |  |  |  |  |  | COc1ncc(-c2ccc3ncc(C#N)c(N4CCOC[C@H]4C)c3c2)cc1NS(C)(=O)=O [crystal form II, (R)-N-(5-(3-cyano-4-(3-methylmorpholinyl)quinolin-6-yl)-2-methoxypyridin-3-yl)methanesulfonamide] |  |
| barely no change; also recorded: stable | barely no change; also recorded: stable | barely no change; also recorded: stable | Stable within | Stable within | Stable within | Stable within | Stable within | Stable within | Stable within | 6.05 (≈ 13.3 µM) | 655.37 (≈ 1450 µM) | 533.36 (≈ 1180 µM) | 570.49 (≈ 1260 µM) | 26.02 (≈ 57.4 µM) | 31.70 (≈ 69.9 µM) | 29.70 (≈ 65.5 µM) | 1431.40 (≈ 3160 µM) | 1283.50 (≈ 2830 µM) | 1289.40 (≈ 2840 µM) | COc1ncc(-c2ccc3ncc(C#N)c(N4CCOC[C@H]4C)c3c2)cc1NS(C)(=O)=O [crystal form IV, (R)-N-(5-(3-cyano-4-(3-methylmorpholinyl)quinolin-6-yl)-2-methoxypyridin-3-yl)methanesulfonamide] | solubility ([5]; Simulated fasting intestinal fluid (FaSSIF), 37° C.): 4.70 µg/mL (≈ 10.4 µM); solubility ([5]; Simulated fasting intestinal fluid (FaSSIF), 75° C.): 5.12 µg/mL (≈ 11.3 µM); solubility ([5]; Simulated fasting intestinal fluid (FaSSIF), Ultrasonic): 5.43 µg/mL (≈ 12 µM); solubility ([5]; Simulated gastric fluid (SGF), 75° C.): 766.58 µg/mL (≈ 1690 µM); solubility ([5]; Simulated postprandial intestinal fluid (FeSSIF), 75° C.): 28.48 µg/mL (≈ 62.8 µM); solubility ([5]; Water, 37° C.): 2.39 µg/mL (≈ 5.27 µM); solubility ([5]; Water, 75° C.): 2.98 µg/mL (≈ 6.57 µM); solubility ([5]; Water, R.T. (25° C.)): 2.68 µg/mL (≈ 5.91 µM); solubility ([5]; Water, Ultrasonic): 2.96 µg/mL (≈ 6.53 µM); solubility ([5]; pH 1.2 hydrochloric acid solution, 75° C.): 1516.50 µg/mL (≈ 3340 µM); solubility ([5]; pH 4.5 acetic acid-sodium acetate solution, 37° C.): 3.04 µg/mL (≈ 6.7 µM); solubility [5, 20]: 3.45 µg/mL (≈ 7.61 µM); solubility [5, 21]: 2.75 µg/mL (≈ 6.06 µM); solubility ([5]; pH 4.5 acetic acid-sodium acetate solution, Ultrasonic): 3.04 µg/mL (≈ 6.7 µM); solubility ([5]; pH 6.8 PBS solution, 37° C.): 2.18 µg/mL (≈ 4.81 µM); solubility ([5]; pH 6.8 PBS solution, 75° C.): 2.62 µg/mL (≈ 5.78 µM); solubility ([5]; pH 6.8 PBS solution, R.T. (25° C.)): 2.12 µg/mL (≈ 4.67 µM); solubility ([5]; pH 6.8 PBS solution, Ultrasonic): 2.48 µg/mL (≈ 5.47 µM) |
| barely no change; also recorded: stable | barely no change | barely no change | Stable within | Stable within | Stable within | Stable within | Stable within | Stable within | Stable within | 2.07 (≈ 4.56 µM) | 167.38 (≈ 369 µM) | 99.81 (≈ 220 µM) | 119.65 (≈ 264 µM) | 11.35 (≈ 25 µM) | 8.09 (≈ 17.8 µM) | 9.46 (≈ 20.9 µM) | 404.30 (≈ 891 µM) | 275.20 (≈ 607 µM) | 294.60 (≈ 650 µM) | COc1ncc(-c2ccc3ncc(C#N)c(N4CCOC[C@H]4C)c3c2)cc1NS(C)(=O)=O [crystal form I, (R)-N-(5-(3-cyano-4-(3-methylmorpholinyl)quinolin-6-yl)-2-methoxypyridin-3-yl)methanesulfonamide] | solid-form stability, change of XRD after high humidity test ([2]; listed as Crystal form I): stable; solubility ([5]; pH 1.2 hydrochloric acid solution, 75 °C, pH 1.2, simulated gastric fluid, thermodynamic from solid, pH 1.2 hydrochloric acid solution, 75° C., read-out: solubility): 868 µg/mL (≈ 1910 µM); solubility ([5]; pH 4.5 acetic acid-sodium acetate solution, 37 °C, pH 4.5, aqueous buffer, thermodynamic from solid, pH 4.5 acetic acid-sodium acetate solution, 37° C., read-out: solubility): 1.67 µg/mL (≈ 3.68 µM); solubility ([5]; pH 4.5 acetic acid-sodium acetate solution, pH 4.5, aqueous buffer, thermodynamic from solid, pH 4.5 acetic acid-sodium acetate solution, Ultrasonic, read-out: solubility): 1.56 µg/mL (≈ 3.44 µM); solubility [5, 20]: 1.55 µg/mL (≈ 3.42 µM); solubility [5, 21]: 1.29 µg/mL (≈ 2.84 µM); solubility ([5]; pH 6.8 PBS solution, 25 °C, pH 6.8, aqueous buffer, thermodynamic from solid, pH 6.8 PBS solution, R.T. (25° C.), read-out: solubility): 3.58 µg/mL (≈ 7.89 µM); solubility ([5]; pH 6.8 PBS solution, 37 °C, pH 6.8, aqueous buffer, thermodynamic from solid, pH 6.8 PBS solution, 37° C., read-out: solubility): 1.51 µg/mL (≈ 3.33 µM); solubility ([5]; pH 6.8 PBS solution, 75 °C, pH 6.8, aqueous buffer, thermodynamic from solid, pH 6.8 PBS solution, 75° C., read-out: solubility): 1.41 µg/mL (≈ 3.11 µM); solubility ([5]; pH 6.8 PBS solution, pH 6.8, aqueous buffer, thermodynamic from solid, pH 6.8 PBS solution, Ultrasonic, read-out: solubility): 2.79 µg/mL (≈ 6.15 µM); solubility ([5]; simulated fasting intestinal fluid (FaSSIF), 37 °C, fassif, thermodynamic from solid, Simulated fasting intestinal fluid (FaSSIF), 37° C., read-out: solubility): 2.87 µg/mL (≈ 6.33 µM); solubility ([5]; simulated fasting intestinal fluid (FaSSIF), 75 °C, fassif, thermodynamic from solid, Simulated fasting intestinal fluid (FaSSIF), 75° C., read-out: solubility): 8.64 µg/mL (≈ 19.1 µM); solubility ([5]; simulated fasting intestinal fluid (FaSSIF), fassif, thermodynamic from solid, Simulated fasting intestinal fluid (FaSSIF), Ultrasonic, read-out: solubility): 4.76 µg/mL (≈ 10.5 µM); solubility ([5]; simulated gastric fluid (SGF), 75 °C, simulated gastric fluid, thermodynamic from solid, Simulated gastric fluid (SGF), 75° C., read-out: solubility): 432 µg/mL (≈ 952 µM); solubility ([5]; simulated postprandial intestinal fluid (FeSSIF), 75 °C, fessif, thermodynamic from solid, Simulated postprandial intestinal fluid (FeSSIF), 75° C., read-out: solubility): 18.9 µg/mL (≈ 41.7 µM); solubility ([5]; water, 25 °C, water, thermodynamic from solid, Water, R.T. (25° C.), read-out: solubility): 3.84 µg/mL (≈ 8.47 µM); solubility ([5]; water, 37 °C, water, thermodynamic from solid, Water, 37° C., read-out: solubility): 3.87 µg/mL (≈ 8.53 µM); solubility ([5]; water, 75 °C, water, thermodynamic from solid, Water, 75° C., read-out: solubility): 2.24 µg/mL (≈ 4.94 µM); solubility ([5]; water, thermodynamic from solid, Water, Ultrasonic, read-out: solubility): 4.63 µg/mL (≈ 10.2 µM); solid-form stability, change of XRD after high temperature test ([3]; listed as Crystal form I): stable |

| Compound | solid-form stability, change of XRD after accelerated stability test [1] | solid-form stability, change of XRD after high humidity test [2] | solid-form stability, change of XRD after high temperature test [3] | Stability [4, 6] | Stability ([4]; Simulated gastric fluid (SGF)) | Stability [4, 7] | Stability ([4]; Water) | Stability [4, 8] | Stability [4, 9] | Stability ([4]; pH 6.8 PBS solution) | solubility [5, 10] [µg/mL] | solubility [5, 11] [µg/mL] | solubility [5, 12] [µg/mL] | solubility [5, 13] [µg/mL] | solubility [5, 14] [µg/mL] | solubility [5, 15] [µg/mL] | solubility [5, 16] [µg/mL] | solubility [5, 17] [µg/mL] | solubility [5, 18] [µg/mL] | solubility [5, 19] [µg/mL] | other results |
| --- | --- | --- | --- | --- | --- | --- | --- | --- | --- | --- | --- | --- | --- | --- | --- | --- | --- | --- | --- | --- | --- |
| COc1ncc(-c2ccc3ncc(C#N)c(N4CCOC[C@H]4C)c3c2)cc1NS(C)(=O)=O [amorphous form, (R)-N-(5-(3-cyano-4-(3-methylmorpholinyl)quinolin-6-yl)-2-methoxypyridin-3-yl)methanesulfonamide, reference compound] |  | obvious crystal transformation; also recorded: significant crystal transformation | obvious crystal transformation; also recorded: significant crystal transformation |  |  |  |  |  |  |  |  |  |  |  |  |  |  |  |  |  |  |
